Reference: article PMC10700139 (Nature, 2023)
Where “and” joins values, the source holds several entries; their conditions need not be identical. Identical values can stand only once.

Tests used:
several insect species = system: several insect species; design: method as in PMID 11804518; details: cited from earlier work
PtCAL-1a/PtCAL-2a = target: T1, PtCAL-1a/PtCAL-2a (Phlegmariurus tetrastichus, UniProt P0DXL1+P0DXL3); assay: In vitro reactions with apoplastic PtCAL-1a/PtCAL-2a (formation of 9, decarboxylation of 3, Zn chelator); type: biochemical
T1 construct: N-terminal signal peptide[58], which would be cleaved during processing and trafficking of these proteins; made in house; host or cells: Nicotiana benthamiana leaves (Agrobacterium transient co-expression, pEAQ-HT), concentrated apoplast extract
T1 sequence (P0DXL1 22-280): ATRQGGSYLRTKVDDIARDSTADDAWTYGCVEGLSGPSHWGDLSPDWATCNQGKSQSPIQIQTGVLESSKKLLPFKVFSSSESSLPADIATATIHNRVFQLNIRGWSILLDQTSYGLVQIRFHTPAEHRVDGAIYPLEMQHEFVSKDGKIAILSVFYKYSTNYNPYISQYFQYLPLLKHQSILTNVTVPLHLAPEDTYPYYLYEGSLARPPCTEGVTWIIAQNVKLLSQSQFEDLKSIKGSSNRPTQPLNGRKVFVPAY
T1 sequence (P0DXL3 24-284): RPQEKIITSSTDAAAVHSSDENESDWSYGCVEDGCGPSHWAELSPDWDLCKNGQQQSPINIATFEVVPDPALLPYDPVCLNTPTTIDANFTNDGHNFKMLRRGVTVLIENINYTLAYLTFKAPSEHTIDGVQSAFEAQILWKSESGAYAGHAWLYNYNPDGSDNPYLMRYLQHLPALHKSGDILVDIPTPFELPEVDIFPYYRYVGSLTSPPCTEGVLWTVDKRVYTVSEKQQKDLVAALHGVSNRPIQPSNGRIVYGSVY
Excerpt: The three CAL proteins identified in this study have predicted N-terminal signal peptides, which were identified using the TargetP-2.0 server (https://services.healthtech.dtu.dk/service.php?TargetP-2.0)[58]. […] To assess this possibility, CAL genes with or without C-terminal 6xHis tags were transiently expressed in N. benthamiana, as described above. Each CAL gene was expressed individually; also, PtCAL-1a and PtCAL-2a were transiently co-expressed in the same leaf because we had found them to cofunction in Lycopodium alkaloid biosynthesis. At 4 days after Agrobacterium infiltration, apoplast protein extracts were isolated using the infiltration–centrifugation method, much as previously described. Two leaves per reaction were excised from the plant and submerged in ice-cold apoplast extraction buffer (100 mM MES, 300 mM NaCl, pH 5.5) in an open-capped 50 ml Falcon tube and these tubes were placed in a plastic vacuum chamber attached to a Welch Model 2025 vacuum pump. The chamber was brought down to full vacuum and after 2 min at this pressure, the vacuum was slowly released to allow for buffer to infiltrate the leaf apoplastic space. Buffer-infiltrated leaves were carefully removed from the Falcon tubes, blotted dry with paper towels and were then rolled into Parafilm and placed in a plungerless 5 ml plastic syringe. The syringe was placed in a 15 ml Falcon tube and this was then centrifuged at 1,000g and 4 °C for 10 min to collect apoplast extract. The resulting extract was centrifuged at 10,000g and 4 °C for 15 min to pellet any larger cellular debris and the supernatant was concentrated using an Amicon Ultra-4 Centrifugal Filter Unit (10 kDA MWCO, MilliporeSigma UFC501024). Protein concentrations were measured using the BIO-RAD Protein Assay or Bradford assay (Abcam 119216) and adjusted with apoplast extraction buffer to a final concentration between 0.5 and 1.5 mg ml^−1. Aliquots of the extracts were snap frozen in liquid nitrogen and stored at −80 °C.
Reactions with CAL-enriched apoplast were routinely performed in low-pH potassium phosphate buffer (50 mM potassium phosphate, 100 mM NaCl, pH 5.9) at a volume of 20 µl. For PtCAL-1a/PtCAL-2a, these reactions contained approximately 1.4 µg of apoplast protein for each CAL (final concentration of 0.07 µg µl^−1). Control reactions used apoplast from leaves expressing only one CAL or with apoplast generated from GFP-expression N. benthamiana leaves. The requisite substrates for this reaction were generated through the activities of in vitro PtPIKS-1 and PtCYP782C1 enzyme reactions. […]. To generate 3 and 4 as potential substrates, 1 µg of previously purified PtPIKS-1 enzyme[23] and 150 µM 1 and 300 µM malonyl-CoA were added directly to the CAL reaction mixtures. After thorough mixing, reactions were incubated at room temperature. An alternative route for producing 3 and 4 independently of thioester intermediates was achieved by mixing stocks of 1 (10 mM in water) and 2 (10 mM in water; always prepared fresh to minimize compound decomposition) in equal proportion, followed by incubation at room temp for 1–2 h, as these two substrates can non-enzymatically condense to yield 3 (which can spontaneously decarboxylate to produce 4). A 2 µl aliquot of this mixture was then added as a component of the PtCAL-1a/PtCAL-2a enzyme reaction (20 µl total reaction volume) in addition to the PtCYP782C1 microsomal reaction mixture. After predesignated incubation times, reactions were quenched by diluting tenfold into ACN with 0.1% formic acid.
To evaluate the potential decarboxylation of β-keto acid substrates by PtCAL-1/PtCAL-2 and PtCAL-3, only 3 or 2, respectively, were added as substrate. PtCAL-1/PtCAL-2 reactions were quenched by diluting aliquots tenfold into ACN with 0.1% formic acid and were subsequently analysed through HILIC LC–MS. PtCAL-3 reactions were quenched by mixing aliquots with an equal volume of water with 0.2% formic acid and were then analysed through C18 LC–MS. […]

[1] = Stability of PtCYP782C1 products in leaf extract incubated at room temperature; type: physicochemical; details: samples incubated at room temperature for 1 h
Protocol: The production of (2S, 4S)-6 and (2S, 4R)-6 was consistent with our hypothesis for elimination-mediated formation of the proposed diene (8). Because formation of 8 would require oxidation of the O-acetylated substrate(s), we next screened CYP and 2OGD family enzymes found in cluster131. […] This coincided with the presence of two new compounds: one that corresponded to a single oxidation (desaturation) of the O-acetylated substrate (7, [M + H]^+ = m/z 184.1332, retention time 1.86 min), as well as another which shared the same exact mass as 8 ([M + H]^+ = m/z 124.1121, retention time 1.93 min). […] Although this limited our ability to access authentic standards, tandem mass spectrometry (MS/MS or MS^2) analysis supported the proposed structures of 7 and 8 and ultraviolet (UV) analysis of 8 corroborated the presence of the predicted α,β-unsaturated imine in this molecule[34] (Extended Data Fig. 2c,d). […]
Extended Data Fig. 2 Functional characterization of PtCYP782C1. a) Transient expression of PtCYP782C1 with a biosynthetic module for the production of 6 diastereomers (PtLDC, PtCAO, PtPIKS, PtSDR-1 or PtSDR-2 and PtACT-1) in N. benthamiana. […] Product abundance is calculated as the integration of the peak generated in the EIC for each mass ion. g) Relative activity of PtCYP782C1 microsomes at varying pH, as determined via production of both 7 and 8. […]

With `C/C=C1\[C@H]2C=C(C)C[C@]1(N)c1ccc(=O)[nH]c1C2` [compound 17, huperzine A] as the compound, how does the antifeedant activity (several insect species) read?
The antifeedant activity was “antifeedant activity”.

With `O=C(O)CC(=O)CC1CCCCN1` (centres unmarked) [compound 3, 4-(2-piperidyl)acetoacetic acid] as the compound, how does the “ratio of 4 ion abundance (m/z 142.1226) to that of 3 (m/z 186.1125)” value (“ratio of 4 ion abundance” for short) (PtCAL-1a/PtCAL-2a; PtCAL-1a/PtCAL-2a +3 (ED 4h)) read?
The value was 31.4694 and 27.1428 and 38.6295.

And the “ratio of 4 ion abundance” value (PtCAL-1a/PtCAL-2a; PtCAL-1a/PtCAL-2a +3, 0.25 hrs (ED 4g))?
Its value is 66.6374 and 57.9149 and 54.0594.

And the “ratio of 4 ion abundance” value (PtCAL-1a/PtCAL-2a; PtCAL-1a/PtCAL-2a +3, 0.5 hrs (ED 4g))?
Its value is 59.9271 and 67.8727 and 55.7877.

What about the “ratio of 4 ion abundance” value (PtCAL-1a/PtCAL-2a; PtCAL-1a/PtCAL-2a +3, 1 hrs (ED 4g)) of the same compound?
Its value is 70.6508 and 59.4497 and 51.4084.

What about the “ratio of 4 ion abundance” value (PtCAL-1a/PtCAL-2a; PtCAL-1a/PtCAL-2a +3, 2 hrs (ED 4g)) of the same compound?
The value was 57.1082 and 53.747 and 49.4186.

With `CC(=O)OC(C)CC1=NCCCC1` (centres unmarked) [compound 7] as the compound, how does the “stability of compound in sample” value [1] read?
Its value is “almost entirely lost”.

With `C/C=C/C1=NCCCC1` [compound 8] as the compound, how does the “stability of compound in sample” value [1] read?
The value was “almost entirely lost”.
